Experimental data: ChEMBL document CHEMBL4649992, “Discovery of I-BRD9, a Selective Cell Active Chemical Probe for Bromodomain Containing Protein 9 Inhibition” (J Med Chem, 2016)

Tests used:
[1] = biological target: Bromodomain-containing protein 9 (Homo sapiens) (UniProt Q9H8M2); assay: Alphascreen assay. Domain start/stop: L14-Q143; conditions: Compound concentration 0.25 uM, Protein concentration 5.0 uM
Peregrin (Homo sapiens) [2] = biological target: T1, Peregrin (Homo sapiens) (UniProt P55201); assay: Alphascreen assay. Domain start/stop: M626-G740; conditions: Compound concentration 4.0 uM, Protein concentration 50.0 uM
T1 sequence (whole entry): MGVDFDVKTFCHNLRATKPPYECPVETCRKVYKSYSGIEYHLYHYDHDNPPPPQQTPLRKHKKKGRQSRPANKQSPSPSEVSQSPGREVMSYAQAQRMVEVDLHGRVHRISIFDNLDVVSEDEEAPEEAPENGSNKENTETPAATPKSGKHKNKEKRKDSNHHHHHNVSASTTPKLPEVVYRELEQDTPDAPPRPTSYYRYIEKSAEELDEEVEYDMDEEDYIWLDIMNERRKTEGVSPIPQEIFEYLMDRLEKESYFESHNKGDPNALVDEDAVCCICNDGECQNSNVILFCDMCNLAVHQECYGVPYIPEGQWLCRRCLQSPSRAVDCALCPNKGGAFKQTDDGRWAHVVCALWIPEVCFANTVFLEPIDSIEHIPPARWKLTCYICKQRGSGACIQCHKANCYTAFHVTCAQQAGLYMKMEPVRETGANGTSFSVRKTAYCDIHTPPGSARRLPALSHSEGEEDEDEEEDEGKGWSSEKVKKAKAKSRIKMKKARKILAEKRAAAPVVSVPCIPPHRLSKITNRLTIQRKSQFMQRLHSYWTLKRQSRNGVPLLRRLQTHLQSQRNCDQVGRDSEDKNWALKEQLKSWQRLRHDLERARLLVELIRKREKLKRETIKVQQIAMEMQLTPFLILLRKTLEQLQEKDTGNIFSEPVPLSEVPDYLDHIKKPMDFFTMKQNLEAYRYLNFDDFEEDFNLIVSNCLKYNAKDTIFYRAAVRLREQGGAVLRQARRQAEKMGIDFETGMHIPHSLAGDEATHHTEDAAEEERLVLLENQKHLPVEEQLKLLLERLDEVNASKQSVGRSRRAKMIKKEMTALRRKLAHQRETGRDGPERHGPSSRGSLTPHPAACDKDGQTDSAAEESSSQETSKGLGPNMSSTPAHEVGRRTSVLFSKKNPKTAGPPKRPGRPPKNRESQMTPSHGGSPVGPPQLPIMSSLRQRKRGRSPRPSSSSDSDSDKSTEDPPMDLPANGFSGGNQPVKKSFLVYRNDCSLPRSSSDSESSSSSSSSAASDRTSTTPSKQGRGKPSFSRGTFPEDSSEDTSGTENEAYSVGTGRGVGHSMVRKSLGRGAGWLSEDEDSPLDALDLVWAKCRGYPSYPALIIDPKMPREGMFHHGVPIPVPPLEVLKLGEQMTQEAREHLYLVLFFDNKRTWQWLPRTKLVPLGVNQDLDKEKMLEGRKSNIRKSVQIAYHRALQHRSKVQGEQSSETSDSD

[3] = biological target: Nucleosome-remodeling factor subunit BPTF (Homo sapiens) (UniProt Q12830)
Description: Alphascreen assay. Domain start/stop: S2791-H2911

[4] = biological target: Chromatin remodeling regulator CECR2 (Homo sapiens) (UniProt Q9BXF3); conditions: Protein concentration 19.0 uM
[5] = biological target: Histone-lysine N-methyltransferase ASH1L (Homo sapiens) (UniProt Q9NR48); conditions: Compound concentration 10.0 uM, Protein concentration 2.0 uM
[6] = biological target: ATPase family AAA domain-containing protein 2 (Homo sapiens) (UniProt Q6PL18); conditions: Compound concentration 10.0 uM, Protein concentration 2.0 uM
[7] = biological target: ATPase family AAA domain-containing protein 2B (Homo sapiens) (UniProt Q9ULI0); conditions: Compound concentration 10.0 uM, Protein concentration 2.0 uM
[8] = biological target: Bromodomain adjacent to zinc finger domain protein 1A (Homo sapiens) (UniProt Q9NRL2); conditions: Compound concentration 10.0 uM, Protein concentration 2.0 uM
[9] = biological target: Tyrosine-protein kinase BAZ1B (Homo sapiens) (UniProt Q9UIG0); conditions: Compound concentration 10.0 uM, Protein concentration 2.0 uM
[10] = biological target: Bromodomain adjacent to zinc finger domain protein 2A (Homo sapiens) (UniProt Q9UIF9); conditions: Compound concentration 10.0 uM, Protein concentration 2.0 uM
[11] = biological target: Bromodomain adjacent to zinc finger domain protein 2B (Homo sapiens) (UniProt Q9UIF8); conditions: Compound concentration 10.0 uM, Protein concentration 2.0 uM
[12] = biological target: Nucleosome-remodeling factor subunit BPTF (Homo sapiens) (UniProt Q12830); conditions: Compound concentration 10.0 uM, Protein concentration 2.0 uM
[13] = biological target: Bromodomain-containing protein 1 (Homo sapiens) (UniProt O95696); conditions: Compound concentration 10.0 uM, Protein concentration 2.0 uM
[14] = biological target: Bromodomain-containing protein 2 (Homo sapiens) (UniProt P25440); conditions: Compound concentration 10.0 uM, Protein concentration 2.0 uM
[15] = biological target: Bromodomain-containing protein 2 (Homo sapiens) (UniProt P25440); conditions: Compound concentration 10.0 uM, Protein concentration 2.0 uM; remark: listed apart in the source
[16] = biological target: Bromodomain-containing protein 3 (Homo sapiens) (UniProt Q15059); conditions: Compound concentration 10.0 uM, Protein concentration 2.0 uM
[17] = biological target: Bromodomain-containing protein 3 (Homo sapiens) (UniProt Q15059); conditions: Compound concentration 10.0 uM, Protein concentration 2.0 uM; remark: listed apart in the source
[18] = biological target: Bromodomain-containing protein 4 (Homo sapiens) (UniProt O60885); conditions: Compound concentration 10.0 uM, Protein concentration 2.0 uM
[19] = biological target: Bromodomain-containing protein 7 (Homo sapiens) (UniProt Q9NPI1); conditions: Compound concentration 10.0 uM, Protein concentration 2.0 uM
[20] = biological target: Bromodomain-containing protein 9 (Homo sapiens) (UniProt Q9H8M2); conditions: Compound concentration 10.0 uM, Protein concentration 2.0 uM
[21] = biological target: Bromodomain testis-specific protein (Homo sapiens) (UniProt Q58F21); conditions: Compound concentration 10.0 uM, Protein concentration 2.0 uM
[22] = biological target: Bromodomain testis-specific protein (Homo sapiens) (UniProt Q58F21); conditions: Compound concentration 10.0 uM, Protein concentration 2.0 uM; remark: listed apart in the source
Peregrin (Homo sapiens) [23] = biological target: T1, Peregrin (Homo sapiens); conditions: Compound concentration 10.0 uM, Protein concentration 2.0 uM
[24] = biological target: Bromodomain and PHD finger-containing protein 3 (Homo sapiens) (UniProt Q9ULD4); conditions: Compound concentration 10.0 uM, Protein concentration 2.0 uM
[25] = biological target: Bromodomain and WD repeat-containing protein 1 (Homo sapiens) (UniProt Q9NSI6); conditions: Compound concentration 10.0 uM, Protein concentration 2.0 uM
[26] = biological target: Bromodomain and WD repeat-containing protein 3 (Homo sapiens) (UniProt Q6RI45); conditions: Compound concentration 10.0 uM, Protein concentration 2.0 uM
[27] = biological target: Chromatin remodeling regulator CECR2 (Homo sapiens) (UniProt Q9BXF3); conditions: Compound concentration 10.0 uM, Protein concentration 2.0 uM
[28] = biological target: CREB-binding protein (Homo sapiens) (UniProt Q92793); conditions: Compound concentration 10.0 uM, Protein concentration 2.0 uM
[29] = biological target: Histone acetyltransferase p300 (Homo sapiens) (UniProt Q09472); conditions: Compound concentration 10.0 uM, Protein concentration 2.0 uM
[30] = biological target: Histone acetyltransferase KAT2A (Homo sapiens) (UniProt Q92830); conditions: Compound concentration 10.0 uM, Protein concentration 2.0 uM
[31] = biological target: Histone acetyltransferase KAT2B (Homo sapiens) (UniProt Q92831); conditions: Compound concentration 10.0 uM, Protein concentration 2.0 uM
[32] = biological target: Histone-lysine N-methyltransferase 2A (Homo sapiens) (UniProt Q03164); conditions: Compound concentration 10.0 uM, Protein concentration 2.0 uM
[33] = biological target: Protein polybromo-1 (Homo sapiens) (UniProt Q86U86); conditions: Compound concentration 10.0 uM, Protein concentration 2.0 uM
[34] = biological target: Protein polybromo-1 (Homo sapiens) (UniProt Q86U86); conditions: Compound concentration 10.0 uM, Protein concentration 2.0 uM; remark: listed apart in the source
[35] = biological target: Protein polybromo-1 (Homo sapiens) (UniProt Q86U86); conditions: Compound concentration 10.0 uM, Protein concentration 2.0 uM; remark: listed apart in the source
[36] = biological target: Protein polybromo-1 (Homo sapiens) (UniProt Q86U86); conditions: Compound concentration 10.0 uM, Protein concentration 2.0 uM; remark: listed apart in the source
[37] = biological target: Protein polybromo-1 (Homo sapiens) (UniProt Q86U86); conditions: Compound concentration 10.0 uM, Protein concentration 2.0 uM; remark: listed apart in the source
[38] = biological target: Protein polybromo-1 (Homo sapiens) (UniProt Q86U86); conditions: Compound concentration 10.0 uM, Protein concentration 2.0 uM; remark: listed apart in the source
[39] = biological target: PH-interacting protein (Homo sapiens) (UniProt Q8WWQ0); conditions: Compound concentration 10.0 uM, Protein concentration 2.0 uM
[40] = biological target: SWI/SNF-related matrix-associated actin-dependent regulator of chromatin subfamily A member 2 (Homo sapiens) (UniProt P51531); conditions: Compound concentration 10.0 uM, Protein concentration 2.0 uM
[41] = biological target: SWI/SNF-related matrix-associated actin-dependent regulator of chromatin subfamily A member 4 (Homo sapiens) (UniProt P51532); conditions: Compound concentration 10.0 uM, Protein concentration 2.0 uM
[42] = biological target: Nuclear body protein SP140 (Homo sapiens) (UniProt Q13342); conditions: Compound concentration 10.0 uM, Protein concentration 2.0 uM
[43] = biological target: Nuclear body protein SP140-like protein (Homo sapiens) (UniProt Q9H930); conditions: Compound concentration 10.0 uM, Protein concentration 2.0 uM
[44] = biological target: Transcription initiation factor TFIID subunit 1 (Homo sapiens) (UniProt P21675); conditions: Compound concentration 10.0 uM, Protein concentration 2.0 uM
[45] = biological target: Transcription initiation factor TFIID subunit 1 (Homo sapiens) (UniProt P21675); conditions: Compound concentration 10.0 uM, Protein concentration 2.0 uM; remark: listed apart in the source
[46] = biological target: Transcription initiation factor TFIID subunit 1-like (Homo sapiens) (UniProt Q8IZX4); conditions: Compound concentration 10.0 uM, Protein concentration 2.0 uM
[47] = biological target: Transcription initiation factor TFIID subunit 1-like (Homo sapiens) (UniProt Q8IZX4); conditions: Compound concentration 10.0 uM, Protein concentration 2.0 uM; remark: listed apart in the source
[48] = biological target: Transcription intermediary factor 1-alpha (Homo sapiens) (UniProt O15164); conditions: Compound concentration 10.0 uM, Protein concentration 2.0 uM
[49] = biological target: Transcription intermediary factor 1-beta (Homo sapiens) (UniProt Q13263); conditions: Compound concentration 10.0 uM, Protein concentration 2.0 uM
[50] = biological target: Bromodomain-containing protein 4 (Homo sapiens) (UniProt O60885); conditions: Compound concentration 10.0 uM, Protein concentration 2.0 uM; remark: listed apart in the source
Peregrin (Homo sapiens) [51] = biological target: T1, Peregrin (Homo sapiens); conditions: Compound concentration 10.0 uM, Protein concentration 2.0 uM; remark: listed apart in the source
[52] = biological target: Transcription intermediary factor 1-alpha (Homo sapiens) (UniProt O15164); conditions: Compound concentration 10.0 uM, Protein concentration 2.0 uM; remark: listed apart in the source

Chain of Protein polybromo-1 (Homo sapiens) (Q86U86 whole entry): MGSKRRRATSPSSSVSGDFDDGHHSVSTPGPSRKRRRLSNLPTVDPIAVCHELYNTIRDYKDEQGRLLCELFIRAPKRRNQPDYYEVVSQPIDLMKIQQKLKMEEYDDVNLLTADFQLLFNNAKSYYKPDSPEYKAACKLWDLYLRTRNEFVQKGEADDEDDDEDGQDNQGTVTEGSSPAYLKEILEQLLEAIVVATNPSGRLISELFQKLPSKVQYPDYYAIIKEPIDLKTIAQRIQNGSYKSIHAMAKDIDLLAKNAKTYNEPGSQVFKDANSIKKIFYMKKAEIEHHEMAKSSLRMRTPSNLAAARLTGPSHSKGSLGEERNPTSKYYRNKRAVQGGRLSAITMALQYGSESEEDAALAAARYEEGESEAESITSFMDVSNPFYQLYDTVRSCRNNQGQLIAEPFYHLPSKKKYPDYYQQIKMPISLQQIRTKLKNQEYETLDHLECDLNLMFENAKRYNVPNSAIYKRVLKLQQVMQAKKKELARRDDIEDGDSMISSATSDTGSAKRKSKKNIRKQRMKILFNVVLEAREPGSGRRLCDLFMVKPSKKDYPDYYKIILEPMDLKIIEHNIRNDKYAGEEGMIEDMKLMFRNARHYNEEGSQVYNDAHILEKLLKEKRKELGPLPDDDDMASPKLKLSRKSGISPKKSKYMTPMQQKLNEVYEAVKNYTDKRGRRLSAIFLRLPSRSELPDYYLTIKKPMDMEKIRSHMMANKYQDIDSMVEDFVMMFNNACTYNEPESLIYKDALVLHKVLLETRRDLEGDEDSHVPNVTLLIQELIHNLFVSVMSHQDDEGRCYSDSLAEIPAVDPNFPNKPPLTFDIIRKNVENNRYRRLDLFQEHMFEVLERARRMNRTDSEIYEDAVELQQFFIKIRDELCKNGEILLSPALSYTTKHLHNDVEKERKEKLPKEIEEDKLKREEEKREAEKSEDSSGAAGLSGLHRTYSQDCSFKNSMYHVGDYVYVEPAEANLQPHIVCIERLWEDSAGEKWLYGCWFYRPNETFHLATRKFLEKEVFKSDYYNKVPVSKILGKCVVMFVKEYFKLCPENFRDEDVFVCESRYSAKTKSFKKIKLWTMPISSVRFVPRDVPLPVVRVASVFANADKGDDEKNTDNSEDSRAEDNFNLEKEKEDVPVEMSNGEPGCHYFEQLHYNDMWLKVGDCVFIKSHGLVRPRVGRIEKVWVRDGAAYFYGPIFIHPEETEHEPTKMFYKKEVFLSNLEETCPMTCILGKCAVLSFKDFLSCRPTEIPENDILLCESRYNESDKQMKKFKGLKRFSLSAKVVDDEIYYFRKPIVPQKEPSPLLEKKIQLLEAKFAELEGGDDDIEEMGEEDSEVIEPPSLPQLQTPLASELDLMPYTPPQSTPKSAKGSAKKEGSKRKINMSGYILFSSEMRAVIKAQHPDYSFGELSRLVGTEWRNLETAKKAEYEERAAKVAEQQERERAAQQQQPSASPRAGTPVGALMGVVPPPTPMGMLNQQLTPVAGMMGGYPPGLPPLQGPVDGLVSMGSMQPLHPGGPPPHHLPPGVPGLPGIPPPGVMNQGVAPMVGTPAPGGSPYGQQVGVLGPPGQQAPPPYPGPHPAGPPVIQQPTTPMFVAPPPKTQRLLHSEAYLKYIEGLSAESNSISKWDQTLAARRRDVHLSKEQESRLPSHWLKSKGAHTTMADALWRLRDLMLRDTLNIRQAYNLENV
Chain of Chromatin remodeling regulator CECR2 (Homo sapiens) (Q9BXF3 whole entry, looked up): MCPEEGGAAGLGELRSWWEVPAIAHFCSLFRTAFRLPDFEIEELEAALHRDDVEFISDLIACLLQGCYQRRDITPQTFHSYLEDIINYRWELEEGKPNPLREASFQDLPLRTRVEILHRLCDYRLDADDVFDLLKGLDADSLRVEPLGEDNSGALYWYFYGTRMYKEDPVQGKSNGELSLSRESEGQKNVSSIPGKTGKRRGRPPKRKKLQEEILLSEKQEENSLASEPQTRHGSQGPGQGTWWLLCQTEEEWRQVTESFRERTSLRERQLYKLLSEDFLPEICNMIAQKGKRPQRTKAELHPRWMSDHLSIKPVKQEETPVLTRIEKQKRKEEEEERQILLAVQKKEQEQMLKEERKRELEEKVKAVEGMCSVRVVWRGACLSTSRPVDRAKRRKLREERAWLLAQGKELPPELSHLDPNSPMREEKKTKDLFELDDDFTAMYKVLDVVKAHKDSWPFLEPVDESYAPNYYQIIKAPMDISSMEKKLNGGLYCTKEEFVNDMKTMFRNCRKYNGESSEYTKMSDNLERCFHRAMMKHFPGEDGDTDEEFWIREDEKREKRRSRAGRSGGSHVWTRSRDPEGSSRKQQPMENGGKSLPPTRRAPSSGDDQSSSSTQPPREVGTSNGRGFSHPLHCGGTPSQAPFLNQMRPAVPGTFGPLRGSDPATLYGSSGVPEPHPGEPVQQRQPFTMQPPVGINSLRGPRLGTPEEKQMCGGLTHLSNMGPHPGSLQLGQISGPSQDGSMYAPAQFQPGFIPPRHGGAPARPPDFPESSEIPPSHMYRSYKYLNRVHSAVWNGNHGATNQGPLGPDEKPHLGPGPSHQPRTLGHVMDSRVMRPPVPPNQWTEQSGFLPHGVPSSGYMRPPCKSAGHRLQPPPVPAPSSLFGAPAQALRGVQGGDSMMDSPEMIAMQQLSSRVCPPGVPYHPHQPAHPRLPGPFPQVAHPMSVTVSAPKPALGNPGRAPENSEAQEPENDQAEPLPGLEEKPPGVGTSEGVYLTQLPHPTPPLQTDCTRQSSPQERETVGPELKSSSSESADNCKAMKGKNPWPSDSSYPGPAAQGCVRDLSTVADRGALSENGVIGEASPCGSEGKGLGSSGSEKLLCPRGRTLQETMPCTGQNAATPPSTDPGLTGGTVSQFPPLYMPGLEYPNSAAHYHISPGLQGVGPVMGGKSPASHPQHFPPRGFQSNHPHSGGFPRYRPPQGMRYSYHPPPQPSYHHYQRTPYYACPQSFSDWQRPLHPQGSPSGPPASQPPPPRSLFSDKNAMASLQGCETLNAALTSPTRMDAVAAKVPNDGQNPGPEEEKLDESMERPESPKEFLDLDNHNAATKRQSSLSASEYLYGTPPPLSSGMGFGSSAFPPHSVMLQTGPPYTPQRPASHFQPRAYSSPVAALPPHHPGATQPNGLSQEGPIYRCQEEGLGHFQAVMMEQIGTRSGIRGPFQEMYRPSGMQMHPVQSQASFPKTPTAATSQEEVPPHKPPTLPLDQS
Chain of Bromodomain-containing protein 3 (Homo sapiens) (Q15059 2-726 limits assumed): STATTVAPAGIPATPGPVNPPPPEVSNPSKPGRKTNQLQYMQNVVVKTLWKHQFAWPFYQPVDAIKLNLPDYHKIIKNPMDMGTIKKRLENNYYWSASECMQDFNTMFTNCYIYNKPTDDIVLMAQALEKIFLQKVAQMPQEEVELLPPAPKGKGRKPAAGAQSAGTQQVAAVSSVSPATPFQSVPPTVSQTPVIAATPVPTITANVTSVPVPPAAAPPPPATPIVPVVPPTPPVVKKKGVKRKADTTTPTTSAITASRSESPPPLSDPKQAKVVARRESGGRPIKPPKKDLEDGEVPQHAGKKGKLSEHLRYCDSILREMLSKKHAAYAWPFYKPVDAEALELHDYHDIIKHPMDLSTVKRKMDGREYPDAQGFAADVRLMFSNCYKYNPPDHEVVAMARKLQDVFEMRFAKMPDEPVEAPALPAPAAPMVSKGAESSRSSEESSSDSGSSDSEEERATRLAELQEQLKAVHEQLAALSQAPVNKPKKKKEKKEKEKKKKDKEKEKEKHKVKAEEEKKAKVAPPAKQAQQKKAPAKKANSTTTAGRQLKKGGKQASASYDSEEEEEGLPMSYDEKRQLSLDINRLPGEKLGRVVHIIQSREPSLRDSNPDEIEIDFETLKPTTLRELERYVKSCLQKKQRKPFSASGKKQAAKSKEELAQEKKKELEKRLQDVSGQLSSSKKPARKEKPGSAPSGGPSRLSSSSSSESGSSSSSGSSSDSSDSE
Chain of Bromodomain-containing protein 2 (Homo sapiens) (P25440 whole entry, looked up): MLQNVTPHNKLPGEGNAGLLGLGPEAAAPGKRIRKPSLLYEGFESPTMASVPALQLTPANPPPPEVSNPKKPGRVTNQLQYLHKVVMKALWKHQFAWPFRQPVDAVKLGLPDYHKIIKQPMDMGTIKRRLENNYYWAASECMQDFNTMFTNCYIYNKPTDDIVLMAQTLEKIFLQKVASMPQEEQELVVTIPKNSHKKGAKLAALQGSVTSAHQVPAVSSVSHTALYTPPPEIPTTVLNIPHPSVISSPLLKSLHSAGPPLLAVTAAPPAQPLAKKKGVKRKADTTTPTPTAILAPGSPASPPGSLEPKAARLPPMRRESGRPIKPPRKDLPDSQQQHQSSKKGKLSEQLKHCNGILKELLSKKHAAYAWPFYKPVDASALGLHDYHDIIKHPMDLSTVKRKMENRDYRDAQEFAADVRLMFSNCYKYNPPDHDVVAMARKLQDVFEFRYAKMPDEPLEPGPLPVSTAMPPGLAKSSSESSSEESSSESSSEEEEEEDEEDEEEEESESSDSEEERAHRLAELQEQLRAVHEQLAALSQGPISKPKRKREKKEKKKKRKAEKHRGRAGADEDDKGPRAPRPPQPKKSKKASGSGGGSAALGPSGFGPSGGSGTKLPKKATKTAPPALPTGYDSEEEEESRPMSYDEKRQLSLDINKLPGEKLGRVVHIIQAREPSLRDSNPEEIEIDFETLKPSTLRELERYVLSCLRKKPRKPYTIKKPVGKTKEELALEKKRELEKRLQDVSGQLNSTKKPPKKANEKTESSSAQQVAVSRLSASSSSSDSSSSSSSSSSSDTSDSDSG

inhibition [1]: 94.3%
inhibition (Peregrin (Homo sapiens) [2]): 18.8%
inhibition ([3]; Compound concentration 0.25 uM, Protein concentration 20.0 uM): -2.87%
inhibition ([3]; Compound concentration 4.0 uM, Protein concentration 19.0 uM): -1.93%
inhibition ([4]; Compound concentration 0.25 uM): 4.99%
inhibition ([4]; Compound concentration 4.0 uM): 99.5%
ΔTm [5]: 1.17 °C
ΔTm [6]: 0.99 °C
ΔTm [7]: 0.97 °C
ΔTm [8]: 0.42 °C
ΔTm [9]: 0.68 °C
ΔTm [10]: 0.67 °C
ΔTm [11]: 0.84 °C
ΔTm [12]: 0.58 °C
ΔTm [13]: 0.98 °C
ΔTm [14]: 2.54 °C
ΔTm [15]: 1.39 °C
ΔTm [16]: 2.77 °C
ΔTm [17]: 1.79 °C
ΔTm [18]: 1.92 °C
ΔTm [19]: 11.1 °C
ΔTm [20]: 14.4 °C
ΔTm [21]: 1.74 °C
ΔTm [22]: 1.37 °C
ΔTm (Peregrin (Homo sapiens) [23]): 2.66 °C
ΔTm [24]: 1.17 °C
ΔTm [25]: 0.71 °C
ΔTm [26]: 2.31 °C
ΔTm [27]: 9.43 °C
ΔTm [28]: 5.94 °C
ΔTm [29]: 6.07 °C
ΔTm [30]: 1.26 °C
ΔTm [31]: 0.36 °C
ΔTm [32]: 0.44 °C
ΔTm [33]: 0.69 °C
ΔTm [34]: 0.54 °C
ΔTm [35]: 0.36 °C
ΔTm [36]: 0.74 °C
ΔTm [37]: 0.63 °C
ΔTm [38]: 0.36 °C
ΔTm [39]: 0.95 °C
ΔTm [40]: 0.72 °C
ΔTm [41]: 0.68 °C
ΔTm [42]: 1.36 °C
ΔTm [43]: 3 °C
ΔTm [44]: 0.5 °C
ΔTm [45]: 0.49 °C
ΔTm [46]: 0.59 °C
ΔTm [47]: 0.9 °C
ΔTm [48]: 1.09 °C
ΔTm [49]: 0.66 °C
ΔTm [50]: 3.6 °C
ΔTm (Peregrin (Homo sapiens) [51]): 1.32 °C
ΔTm [52]: 1.86 °C
Compound: CCn1cc(-c2cccc(C(F)(F)F)c2)c2sc(C(=N)NC3CCS(=O)(=O)CC3)cc2c1=O
